In US7537891B2, “Identification of polynucleotides for predicting activity of compounds that interact with and/or modulate protein tyrosine kinases and/or protein tyrosine kinase pathways in breast cells” (Bristol-Myers Squibb Company, priority 2002, dated 2009):

Tested on: polynucleotide expression in breast cell lines
Assay: Drug treatment study with expression profiling in 11 breast cell lines
Format: cell-based, human
Conditions: 0.4 μM BMS-A, 24 hours; only in sensitive breast cell lines
Description: Eleven breast cell lines (5 sensitive and 6 resistant cell lines as indicated in bold in the Table 1) were used in a drug treatment study. Cells were treated with or without the BMS-A compound (0.4 μM) in 0.1% DMSO for 24 hours. Expression profiling was performed, the polynucleotide expression of a cell line treated with drug was compared pair-wisely to the polynucleotide expression of the same cell line without drug treatment. […]
Cells were treated with or without the BMS-A compound (0.4 μM) in 0.1% DMSO for 24 hours. Expression profiling was performed, and the data were analyzed using GeneChip® Expression Analysis software MAS 5.0 (Affymetrix, Santa Clara, Calif.). […] A change in p-value was calculated, indicating an increase, decrease or no change in polynucleotide expression. […]
The breast cells were grown under standard cell culture conditions: RPMI 1640 supplemented to contain 10% fetal bovine serum, 100 IU/ml penicillin, […], 2 mM L-glutamine and 10 mM Hepes (all from GibcoBRL, Rockville, Md.). […] The quality of the RNA was assessed by measuring the 28s:18s ribosomal RNA ratio using an Agilent 2100 bioanalyzer (Agilent Technologies, Rockville, Md.). The concentration of total RNA was determined spectrophotometrically. […]

`Cc1nc(Nc2ncc(C(=O)Nc3c(C)cccc3Cl)s2)cc(N2CCN(CCO)CC2)n1` [BMS-A] was tested. Which EphA2 polynucleotide expression did it give?
Its EphA2 polynucleotide expression is “down regulated”.

What about the caveolin-2 polynucleotide expression of the same compound?
Its caveolin-2 polynucleotide expression is “down regulated”.
